Test results from a compilation of properties of binary mixtures (doi:10.1021/acs.jpcc.8b05193).

Test: xn = mol fraction of the nth substance listed
Conditions: 100 kPa

O=S(=O)([N-]S(=O)(=O)C(F)(F)F)C(F)(F)F.[Li+] + O
Conditions | electrical conductivity [S/m]
260.73 K, x2 = 0.7857 | 0.407
261.98 K, x2 = 0.8065 | 0.617
262.18 K, x2 = 0.8855 | 1.33
262.4 K, x2 = 0.9148 | 1.46
262.6 K, x2 = 0.8271 | 0.808
262.82 K, x2 = 0.8495 | 1.04
265.92 K, x2 = 0.7857 | 0.55
266.56 K, x2 = 0.8065 | 0.767
266.96 K, x2 = 0.8495 | 1.25
266.96 K, x2 = 0.9761 | 1.36
267.38 K, x2 = 0.8855 | 1.66
267.6 K, x2 = 0.9148 | 1.86
270.7 K, x2 = 0.7857 | 0.684
271.54 K, x2 = 0.8065 | 0.966
271.96 K, x2 = 0.9761 | 1.73
272.15 K, x2 = 0.8271 | 1.21
272.6 K, x2 = 0.9148 | 2.27
273.4 K, x2 = 0.7538 | 0.461
273.4 K, x2 = 0.8495 | 1.62
275.7 K, x2 = 0.7857 | 0.843
277.15 K, x1 = 0.0039 | 0.623
277.35 K, x2 = 0.8065 | 1.16
277.35 K, x2 = 0.8855 | 2.54
277.35 K, x2 = 0.9761 | 2.06
277.55 K, x2 = 0.8271 | 1.51
277.97 K, x2 = 0.7538 | 0.579
277.97 K, x2 = 0.9148 | 2.88
278.19 K, x2 = 0.8495 | 1.94
280.67 K, x2 = 0.7857 | 1.06
281.51 K, x2 = 0.8271 | 1.8
281.93 K, x2 = 0.8855 | 2.94
282.13 K, x2 = 0.9761 | 2.49
282.32 K, x1 = 0.0039 | 0.736
282.32 K, x2 = 0.8065 | 1.43
282.55 K, x2 = 0.9148 | 3.3
282.74 K, x2 = 0.8495 | 2.22
285.45 K, x2 = 0.7857 | 1.23
286.71 K, x2 = 0.9148 | 3.94
286.9 K, x2 = 0.8271 | 2.11
287.1 K, x2 = 0.8065 | 1.66
287.32 K, x2 = 0.8855 | 3.47
287.52 K, x2 = 0.9761 | 2.94
287.94 K, x2 = 0.8495 | 2.65
291.06 K, x2 = 0.7857 | 1.46
291.46 K, x2 = 0.8271 | 2.41
291.88 K, x2 = 0.8855 | 3.98
292.1 K, x2 = 0.9761 | 3.33
292.52 K, x2 = 0.7538 | 1.02
292.71 K, x2 = 0.9148 | 4.51
293.13 K, x2 = 0.8495 | 3.17
295.84 K, x2 = 0.7857 | 1.71
296.88 K, x2 = 0.6988 | 0.538
296.88 K, x2 = 0.9761 | 3.81
297.29 K, x2 = 0.8065 | 2.22
297.29 K, x2 = 0.8855 | 4.65
297.49 K, x2 = 0.7538 | 1.19
297.49 K, x2 = 0.8495 | 3.51
297.49 K, x2 = 0.9148 | 5.33
298.11 K, x1 = 0.0039 | 1.07
300.4 K, x2 = 0.7857 | 1.96
302.47 K, x1 = 0.0039 | 1.21
302.47 K, x2 = 0.6988 | 0.636
302.47 K, x2 = 0.8855 | 5.16
302.69 K, x2 = 0.9761 | 4.37
303.11 K, x2 = 0.8065 | 2.62
305.59 K, x2 = 0.7857 | 2.24
307.05 K, x2 = 0.8855 | 5.67
307.05 K, x2 = 0.9148 | 6.42
307.24 K, x2 = 0.6988 | 0.767
307.46 K, x1 = 0.0039 | 1.35
307.46 K, x2 = 0.8271 | 3.62
307.46 K, x2 = 0.8495 | 4.46
310.79 K, x2 = 0.7857 | 2.57
312.02 K, x2 = 0.9761 | 5.38
312.24 K, x2 = 0.7538 | 1.8
312.24 K, x2 = 0.8271 | 4.02
312.24 K, x2 = 0.8495 | 4.95
312.66 K, x1 = 0.0039 | 1.51
312.66 K, x2 = 0.8855 | 6.42
312.66 K, x2 = 0.9148 | 7.28
313.05 K, x2 = 0.6601 | 0.528
316.6 K, x1 = 0.0039 | 1.62
316.8 K, x2 = 0.8855 | 7.06
317.02 K, x2 = 0.8065 | 3.59
317.21 K, x2 = 0.9761 | 5.97
317.41 K, x2 = 0.9148 | 8.07
317.63 K, x2 = 0.6601 | 0.604
317.83 K, x2 = 0.7538 | 2.06
321.79 K, x2 = 0.8065 | 3.94
321.79 K, x2 = 0.8855 | 7.59
321.99 K, x1 = 0.0039 | 1.78
322.19 K, x2 = 0.8271 | 4.85
322.41 K, x2 = 0.9148 | 8.69
322.61 K, x2 = 0.8495 | 6.03
322.83 K, x2 = 0.6601 | 0.692
323.03 K, x2 = 0.6988 | 1.18
326.35 K, x2 = 0.7857 | 3.51
326.77 K, x1 = 0.0039 | 1.92
326.97 K, x2 = 0.8855 | 8.33
327.19 K, x2 = 0.7538 | 2.52
327.19 K, x2 = 0.9148 | 9.45
327.38 K, x2 = 0.9761 | 7.13
327.8 K, x2 = 0.8495 | 6.49
328.02 K, x2 = 0.8065 | 4.56
328.64 K, x2 = 0.6601 | 0.833
332.16 K, x1 = 0.0039 | 2.08
332.58 K, x2 = 0.6988 | 1.52
332.58 K, x2 = 0.9148 | 10
332.78 K, x2 = 0.9761 | 7.67
333.42 K, x2 = 0.6601 | 0.945
336.94 K, x2 = 0.8271 | 6.35
337.16 K, x1 = 0.0039 | 2.2
337.36 K, x2 = 0.8065 | 5.27
337.55 K, x2 = 0.8495 | 7.59
337.55 K, x2 = 0.9148 | 10.7
337.78 K, x2 = 0.9761 | 8.25
337.97 K, x2 = 0.7538 | 3.13
338.19 K, x2 = 0.6601 | 1.05
338.19 K, x2 = 0.6988 | 1.73
342.33 K, x2 = 0.8495 | 8.16
342.33 K, x2 = 0.9148 | 11.6
342.55 K, x2 = 0.6988 | 1.88
342.55 K, x2 = 0.8855 | 10.4
342.75 K, x2 = 0.9761 | 8.87
345.65 K, x2 = 0.7857 | 4.95
347.11 K, x2 = 0.8855 | 11
347.33 K, x2 = 0.6601 | 1.35
347.33 K, x2 = 0.8065 | 6.03
347.33 K, x2 = 0.8271 | 7.51
347.75 K, x2 = 0.9148 | 12.5
347.94 K, x2 = 0.7538 | 3.73
350.43 K, x2 = 0.7857 | 5.27
352.11 K, x2 = 0.8495 | 9.06
352.3 K, x1 = 0.0039 | 2.65
352.52 K, x2 = 0.9148 | 13
352.72 K, x2 = 0.8271 | 7.91
352.72 K, x2 = 0.9761 | 9.74
352.92 K, x2 = 0.6601 | 1.48
353.14 K, x2 = 0.6988 | 2.34
353.34 K, x2 = 0.7538 | 4.02
356.66 K, x2 = 0.8065 | 6.91
356.88 K, x2 = 0.6988 | 2.49
357.08 K, x2 = 0.9761 | 10.3
357.3 K, x2 = 0.8271 | 8.33
357.3 K, x2 = 0.8495 | 9.74
357.5 K, x1 = 0.0039 | 2.85
357.7 K, x2 = 0.6601 | 1.64
357.92 K, x2 = 0.7538 | 4.32
359.79 K, x2 = 0.7857 | 6.03
360.82 K, x2 = 0.8065 | 7.28
360.82 K, x2 = 0.9761 | 10.7
361.66 K, x2 = 0.8495 | 10.3
361.66 K, x2 = 0.8855 | 13.2
361.86 K, x1 = 0.0039 | 3.04
362.05 K, x2 = 0.6601 | 1.82
362.05 K, x2 = 0.8271 | 8.96
362.47 K, x2 = 0.6988 | 2.76
363.11 K, x2 = 0.9148 | 14.5
363.31 K, x2 = 0.7538 | 4.7
